Here are results for 30 molecules from US20080020981A1, “Non-nucleoside reverse transcriptase inhibitors” (Roche Palo Alto LLC, priority 2006, published 2008).

In data set [1] the target is T1, HIV-RT enzyme (HIV-1 reverse transcriptase) (Human immunodeficiency virus type 1 group M subtype B, UniProt P03366).
T1 construct: Reactions were initiated by the addition of 30 μl of the HIV-RT enzyme
Kind of data set: HIV-1 Reverse Transcriptase Assay Inhibitor IC50 Determination (RNA-dependent DNA polymerase activity, SPA). The class given is biochemical. As for the experimental part:
HIV-1 Reverse Transcriptase Assay Inhibitor IC50 Determination
RNA-dependent DNA polymerase activity was measured using a biotinylated primer oligonucleotide and tritiated dNTP substrate. Newly synthesized DNA was quantified by capturing the biotinylated primer molecules on streptavidin coated Scintillation Proximity Assay (SPA) beads (Amersham). […] The biotinylated DNA primer was obtained from the Integrated DNA Technologies Inc. and the RNA template was synthesized by Dharmacon. […] Reactions were initiated by the addition of 30 μl of the HIV-RT enzyme (final concentrations of […]). Protein concentrations were adjusted to provide linear product formation for at least 30 min of incubation. After incubation at 30° for 30 min, the reaction was quenched by addition of 50 μl of 200 mM EDTA (pH 8.0) and 2 mg/ml SA-PVT SPA beads (Amersham, RPNQ0009, reconstituted in 20 mM Tris-HCl, pH 8.0, 100 mM EDTA and 1% BSA). The beads were left to settle overnight and the SPA signals were counted in a 96-well top counter-NXT (Packard). IC50 values were obtained by sigmoidal regression analysis using GraphPad Prism 3.0 (GraphPad Software, Inc.).

The mark [2] stands for this setting: RNA-dependent DNA polymerase activity, SPA, 30 min at 30°, read-out: HIV-RT IC50.

Structures can show the parent of a compound that is named as a salt. Where two headings read alike, the source gives them in different places.

For orientation: IC50 means the concentration needed to halve the response being measured. Consider “2-[3-(3-Chloro-5-cyano-phenoxy)-4-cyclopropyl-2-fluoro-phenoxy]-N-(2-chloro-4-sulfamoyl-phenyl)-acetamide [I-9]”, for which the IC50 in data set [1] (setting [2]) turned out to be 7.7 nM. Still for that read-out and setting: for “2-[4-Bromo-3-(3-chloro-5-cyano-phenoxy)-2-fluoro-phenoxy]-N-[2-chloro-4-(2,4-dioxo-imidazolidin-1-yl)-phenyl]-acetamide [I-30]” the value was 15.5 nM; for “2-[4-Chloro-3-(3,5-dicyano-phenoxy)-2-fluoro-phenoxy]-N-(2-methyl-4-sulfamoyl-phenyl)-acetamide [I-14]”, 6.4 nM. Broadly, the melting point is the temperature, or range, at which the solid turns liquid. For `CCC(=O)NS(=O)(=O)c1ccc(NC(=O)COc2ccc(Br)c(Oc3cc(Cl)cc(C#N)c3)c2F)c(Cl)c1` (as salt: Na) [I-23], the melting point fell in the range of 261 to 264 °C. Still for that read-out and setting: for `CCC(=O)NS(=O)(=O)c1ccc(NC(=O)COc2ccc(Br)c(Oc3cc(Cl)cc(C#N)c3)c2F)c(C)c1` (as salt: Na) [I-24] the value was 268.1 to 270 °C.

For `N#Cc1cc(Cl)cc(Oc2c(Cl)ccc(OCC(=O)Nc3ccc(S(N)(=O)=O)cc3Cl)c2F)c1` [I-1, 2-[4-Chloro-3-(3-chloro-5-cyano-phenoxy)-2-fluoro-phenoxy]-N-(2-chloro-4-sulfamoyl-phenyl)-acetamide], the melting point lay in the range of 233.3 to 247.6 °C. In addition, the IC50 in data set [1] (setting [2]) was determined as 16.2 nM. For `Cc1cc(S(N)(=O)=O)ccc1NC(=O)COc1ccc(Cl)c(Oc2cc(Cl)cc(C#N)c2)c1F` [I-2], in that order: 209.9 to 212 °C and 12.8 nM. The corresponding values for `Cc1cc(S(N)(=O)=O)ccc1NC(=O)COc1ccc(Br)c(Oc2cc(Cl)cc(C#N)c2)c1F` [I-4, 2-[4-Bromo-3-(3-chloro-5-cyano-phenoxy)-2-fluoro-phenoxy]-N-(2-methyl-4-sulfamoyl-phenyl)-acetamide] are 226 to 228.8 °C and 6.5 nM. In turn, `N#Cc1cc(Cl)cc(Oc2c(Br)ccc(OCC(=O)Nc3ccc(S(N)(=O)=O)cc3Cl)c2F)c1` [I-5] showed a melting point of 250.9 to 252.3 °C. The IC50 in data set [1] (setting [2]) was 18.7 nM.

Take `CCc1ccc(OCC(=O)Nc2ccc(S(N)(=O)=O)cc2C)c(F)c1Oc1cc(Cl)cc(C#N)c1` [I-6, 2-[3-(3-Chloro-5-cyano-phenoxy)-4-ethyl-2-fluoro-phenoxy]-N-(2-methyl-4-sulfamoyl-phenyl)-acetamide]: the melting point is 188 to 189.6 °C. Further, the IC50 in data set [1] (setting [2]) came out at 8.4 nM.

As to `CCc1ccc(OCC(=O)Nc2ccc(S(N)(=O)=O)cc2Cl)c(F)c1Oc1cc(Cl)cc(C#N)c1` [I-7], the IC50 in data set [1] (setting [2]) was over 10000 nM.

The molecule `N#Cc1cc(Cl)cc(Oc2c(C3CC3)ccc(OCC(=O)Nc3ccc(S(N)(=O)=O)cc3Cl)c2F)c1` [I-8] showed a melting point of 210 to 211 °C. Also, the IC50 in data set [1] (setting [2]) worked out at 18.3 nM. The corresponding values for `N#Cc1cc(Cl)cc(Oc2cc(OCC(=O)Nc3ccc(S(N)(=O)=O)cc3Cl)ccc2Cl)c1` [I-10] are 217 to 219 °C and 7.4 nM. As to `COc1cc(C#N)cc(Oc2c(Cl)ccc(OCC(=O)Nc3ccc(S(N)(=O)=O)cc3C)c2F)c1` [I-11], the melting point fell in the range of 122 to 123.2 °C. In data set [1] (setting [2]), the IC50 stood at 3.1 nM. For `COc1cc(C#N)cc(Oc2c(Cl)ccc(OCC(=O)Nc3ccc(S(N)(=O)=O)cc3Cl)c2F)c1` [I-12], in that order: 211 to 212 °C and 8.2 nM. Take `Cc1cc(S(N)(=O)=O)ccc1NC(=O)COc1ccc(Cl)c(Oc2cc(C#N)cc(C#N)c2)c1F` [I-13]: the melting point is 264.5 to 265.2 °C. For the same molecule, the IC50 in data set [1] (setting [2]) was determined as 3.8 nM. On to `Cc1cc(S(N)(=O)=O)ccc1NC(=O)COc1ccc(Cl)c(Oc2cc(Cl)cc(C#N)c2)c1` [I-15, 2-[4-Chloro-3-(3-chloro-5-cyano-phenoxy)-phenoxy]-N-(2-methyl-4-sulfamoyl-phenyl)-acetamide], for which, in data set [1] (setting [2]), the IC50 came to 6.5 nM. On to `COc1cc(C#N)cc(Oc2c(Br)ccc(OCC(=O)Nc3ccc(S(N)(=O)=O)cc3C)c2F)c1` [I-16], for which the melting point fell in the range of 220 to 223.3 °C. Further, in data set [1] (setting [2]), the IC50 amounted to 5.1 nM.

`COc1cc(C#N)cc(Oc2c(Br)ccc(OCC(=O)Nc3ccc(S(N)(=O)=O)cc3Cl)c2F)c1` [I-17] returned a melting point of 213.9 to 217.9 °C. The IC50 in data set [1] (setting [2]) came to 12.6 nM. Regarding `Cc1cc(S(N)(=O)=O)ccc1NC(=O)COc1ccc(Cl)c(Oc2cc(Br)cc(C#N)c2)c1F` [I-18], the melting point lay within 234.9 to 236.6 °C. Also, in data set [1] (setting [2]), the IC50 worked out at 6.6 nM. For `N#Cc1cc(Br)cc(Oc2c(Cl)ccc(OCC(=O)Nc3ccc(S(N)(=O)=O)cc3Cl)c2F)c1` [I-19], in that order: 242.2 to 244.9 °C and 14.9 nM. In the case of `CCc1cc(C#N)cc(Oc2c(Cl)ccc(OCC(=O)Nc3ccc(S(N)(=O)=O)cc3Cl)c2F)c1` [I-20, 2-[4-Chloro-3-(3-cyano-5-ethyl-phenoxy)-2-fluoro-phenoxy]-N-(2-chloro-4-sulfamoyl-phenyl)-acetamide], in data set [1] (setting [2]), the IC50 worked out at 31.7 nM. Molecule `N#Cc1cc(C#N)cc(Oc2c(Br)ccc(OCC(=O)Nc3ccc(S(N)(=O)=O)cc3Cl)c2F)c1` [I-21] registered a melting point of 255 to 257 °C. For the same molecule, the IC50 in data set [1] (setting [2]) is 19.1 nM.

Regarding `CCC(=O)NS(=O)(=O)c1ccc(NC(=O)COc2ccc(Br)c(Oc3cc(Cl)cc(C#N)c3)c2F)c(Cl)c1` [I-23], the half-inhibitory concentration (IC50) in data set [1] (setting [2]) was 4.8 nM.

On to `CCC(=O)NS(=O)(=O)c1ccc(NC(=O)COc2ccc(Br)c(Oc3cc(Cl)cc(C#N)c3)c2F)c(C)c1` [I-24], for which the IC50 in data set [1] (setting [2]) stood at 5.7 nM.

For the molecule `N#Cc1cc(Oc2c(Cl)ccc(OCC(=O)Nc3ccc(S(N)(=O)=O)cc3Cl)c2F)cc(C2CC2)c1` [I-26], the melting point lay within 219 to 221 °C. In addition, the IC50 in data set [1] (setting [2]) turned out to be 66.5 nM. As for `N#Cc1cc(Cl)cc(Oc2c(Cl)ccc(OCC(=O)Nc3ccc(C(=O)O)cc3Cl)c2F)c1` [I-27, 3-Chloro-4-{2-[4-chloro-3-(3-chloro-5-cyano-phenoxy)-2-fluoro-phenoxy]-acetylamino}-benzoic acid], in data set [1] (setting [2]), the IC50 was 6.1 nM. In the case of `Cc1cc(C(N)=O)ccc1NC(=O)COc1ccc(Br)c(Oc2cc(Cl)cc(C#N)c2)c1F` [I-28, 4-{2-[4-Bromo-3-(3-chloro-5-cyano-phenoxy)-2-fluoro-phenoxy]-acetylamino}-3-methyl-benzamide], the melting point fell in the range of 250.6 to 252.5 °C. Moreover, the IC50 in data set [1] (setting [2]) is 6.9 nM.

In data set [1], `CC(C)(O)C#Cc1ccc(NC(=O)COc2ccc(Br)c(Oc3cc(Cl)cc(C#N)c3)c2F)c(Cl)c1` [I-31, 2-[4-Bromo-3-(3-chloro-5-cyano-phenoxy)-2-fluoro-phenoxy]-N-[2-chloro-4-(3-hydroxy-3-methyl-but-1-ynyl)-phenyl]-acetamide] registered an IC50 of 82.1 nM.

Take `CC(C)(N)C#Cc1ccc(NC(=O)COc2ccc(Cl)c(Oc3cc(Cl)cc(C#N)c3)c2F)c(Cl)c1` [I-32, N-[4-(3-Amino-3-methyl-but-1-ynyl)-2-chloro-phenyl]-2-[4-chloro-3-(3-chloro-5-cyano-phenoxy)-2-fluoro-phenoxy]-acetamide]: the IC50 in data set [1] (setting [2]) turned out to be 21.4 nM.
